In the NIST ThermoML archive (doi:10.1021/je200124h):
± gives the expanded uncertainty stated by the source.

Key:
[1] = wn = mass fraction of the nth substance listed; details: for surface tension liquid-gas: Ring tensiometer; for viscosity / mass density: Liquid; for mass density: Pycnometric method
[2] = for surface tension liquid-gas: Ring tensiometer; for viscosity / mass density: 101.33 kPa, Liquid; for viscosity: Capillary tube (Ostwald / Ubbelohde) method; for mass density: Pycnometric method

CC(O)CNCC(C)O (configuration not stated) [N-(2-hydroxypropyl)-2-hydroxy-1-propanamine] + O
surface tension liquid-gas ([1]; 303.15 K, w1 = 0.3873): 45.3 ± 0.7 mN/m
viscosity ([1]; 303.15 K, 101 kPa, w1 = 0.3873): 5.42 ± 0.13 mPa·s
mass density ([1]; 303.15 K, 101.3 kPa, w1 = 0.3873): 1016 ± 1.6 kg/m3
surface tension liquid-gas ([1]; 313.15 K, w1 = 0.3873): 44.4 ± 0.7 mN/m
viscosity ([1]; 313.15 K, 101 kPa, w1 = 0.3873): 3.74 ± 0.1 mPa·s
mass density ([1]; 313.15 K, 101.3 kPa, w1 = 0.3873): 1012 ± 1.6 kg/m3
surface tension liquid-gas ([1]; 323.15 K, w1 = 0.3873): 43.2 ± 0.8 mN/m
viscosity ([1]; 323.15 K, 101 kPa, w1 = 0.3873): 2.56 ± 0.08 mPa·s
mass density ([1]; 323.15 K, 101.3 kPa, w1 = 0.3873): 1006 ± 1.6 kg/m3
surface tension liquid-gas ([1]; 333.15 K, w1 = 0.3873): 42.1 ± 0.6 mN/m
viscosity ([1]; 333.15 K, 101 kPa, w1 = 0.3873): 1.88 ± 0.082 mPa·s
mass density ([1]; 333.15 K, 101.3 kPa, w1 = 0.3873): 1000 ± 1.9 kg/m3
surface tension liquid-gas ([1]; 343.15 K, w1 = 0.3873): 40.5 ± 0.6 mN/m
viscosity ([1]; 343.15 K, 101 kPa, w1 = 0.3873): 1.42 ± 0.037 mPa·s
mass density ([1]; 343.15 K, 101.3 kPa, w1 = 0.3873): 994.5 ± 1.6 kg/m3

O=S1(=O)CCCC1 [sulfolane] + O
mass density ([1]; 303.15 K, 101 kPa, w1 = 0.0346): 1003 ± 1.5 kg/m3
mass density ([1]; 303.15 K, 101 kPa, w1 = 0.0487): 1007 ± 1.5 kg/m3
mass density ([1]; 303.15 K, 101 kPa, w1 = 0.0721): 1012 ± 1.6 kg/m3
mass density ([1]; 303.15 K, 101 kPa, w1 = 0.1022): 1020 ± 1.6 kg/m3
mass density ([1]; 303.15 K, 101 kPa, w1 = 0.1635): 1038 ± 12 kg/m3
viscosity ([1]; 303.15 K, 101 kPa, w1 = 0.0346): 0.84 ± 0.023 mPa·s
viscosity ([1]; 303.15 K, 101 kPa, w1 = 0.0487): 0.85 ± 0.025 mPa·s
viscosity ([1]; 303.15 K, 101 kPa, w1 = 0.0721): 0.88 ± 0.023 mPa·s
viscosity ([1]; 303.15 K, 101 kPa, w1 = 0.1022): 0.92 ± 0.024 mPa·s
viscosity ([1]; 303.15 K, 101 kPa, w1 = 0.1635): 1.02 ± 0.027 mPa·s
mass density ([1]; 313.15 K, 101 kPa, w1 = 0.0346): 999.7 ± 4.6 kg/m3
mass density ([1]; 313.15 K, 101 kPa, w1 = 0.0487): 1003 ± 1.5 kg/m3
mass density ([1]; 313.15 K, 101 kPa, w1 = 0.0721): 1007 ± 1.5 kg/m3
mass density ([1]; 313.15 K, 101 kPa, w1 = 0.1022): 1016 ± 1.6 kg/m3
mass density ([1]; 313.15 K, 101 kPa, w1 = 0.1635): 1032 ± 1.6 kg/m3
viscosity ([1]; 313.15 K, 101 kPa, w1 = 0.0346): 0.69 ± 0.019 mPa·s
viscosity ([1]; 313.15 K, 101 kPa, w1 = 0.0487): 0.7 ± 0.023 mPa·s
viscosity ([1]; 313.15 K, 101 kPa, w1 = 0.0721): 0.73 ± 0.02 mPa·s
viscosity ([1]; 313.15 K, 101 kPa, w1 = 0.1022): 0.76 ± 0.021 mPa·s
viscosity ([1]; 313.15 K, 101 kPa, w1 = 0.1635): 0.84 ± 0.023 mPa·s
mass density ([1]; 323.15 K, 101 kPa, w1 = 0.0346): 995.2 ± 3.4 kg/m3
mass density ([1]; 323.15 K, 101 kPa, w1 = 0.0487): 998.2 ± 1.5 kg/m3
mass density ([1]; 323.15 K, 101 kPa, w1 = 0.0721): 1003 ± 1.5 kg/m3
mass density ([1]; 323.15 K, 101 kPa, w1 = 0.1022): 1010 ± 1.6 kg/m3
mass density ([1]; 323.15 K, 101 kPa, w1 = 0.1635): 1026 ± 1.6 kg/m3
viscosity ([1]; 323.15 K, 101 kPa, w1 = 0.0346): 0.58 ± 0.016 mPa·s
viscosity ([1]; 323.15 K, 101 kPa, w1 = 0.0487): 0.59 ± 0.023 mPa·s
viscosity ([1]; 323.15 K, 101 kPa, w1 = 0.0721): 0.61 ± 0.017 mPa·s
viscosity ([1]; 323.15 K, 101 kPa, w1 = 0.1022): 0.64 ± 0.018 mPa·s
viscosity ([1]; 323.15 K, 101 kPa, w1 = 0.1635): 0.71 ± 0.019 mPa·s
mass density ([1]; 333.15 K, 101 kPa, w1 = 0.0346): 990.1 ± 3.8 kg/m3
mass density ([1]; 333.15 K, 101 kPa, w1 = 0.0487): 993 ± 1.6 kg/m3
mass density ([1]; 333.15 K, 101 kPa, w1 = 0.0721): 998.9 ± 1.6 kg/m3
mass density ([1]; 333.15 K, 101 kPa, w1 = 0.1022): 1005 ± 3.6 kg/m3
mass density ([1]; 333.15 K, 101 kPa, w1 = 0.1635): 1020 ± 1.7 kg/m3
viscosity ([1]; 333.15 K, 101 kPa, w1 = 0.0346): 0.49 ± 0.014 mPa·s
viscosity ([1]; 333.15 K, 101 kPa, w1 = 0.0487): 0.5 ± 0.029 mPa·s
viscosity ([1]; 333.15 K, 101 kPa, w1 = 0.0721): 0.52 ± 0.015 mPa·s
viscosity ([1]; 333.15 K, 101 kPa, w1 = 0.1022): 0.55 ± 0.016 mPa·s
viscosity ([1]; 333.15 K, 101 kPa, w1 = 0.1635): 0.61 ± 0.017 mPa·s
mass density ([1]; 343.15 K, 101 kPa, w1 = 0.0346): 984.3 ± 2.5 kg/m3
mass density ([1]; 343.15 K, 101 kPa, w1 = 0.0487): 987 ± 7 kg/m3
mass density ([1]; 343.15 K, 101 kPa, w1 = 0.0721): 991.7 ± 2.1 kg/m3
mass density ([1]; 343.15 K, 101 kPa, w1 = 0.1022): 998 ± 2.3 kg/m3
mass density ([1]; 343.15 K, 101 kPa, w1 = 0.1635): 1012 ± 2.5 kg/m3
viscosity ([1]; 343.15 K, 101 kPa, w1 = 0.0346): 0.43 ± 0.013 mPa·s
viscosity ([1]; 343.15 K, 101 kPa, w1 = 0.0487): 0.44 ± 0.013 mPa·s
viscosity ([1]; 343.15 K, 101 kPa, w1 = 0.0721): 0.45 ± 0.013 mPa·s
viscosity ([1]; 343.15 K, 101 kPa, w1 = 0.1022): 0.48 ± 0.014 mPa·s
viscosity ([1]; 343.15 K, 101 kPa, w1 = 0.1635): 0.54 ± 0.015 mPa·s

OCCN(CCO)CCO [triethanolamine]
surface tension liquid-gas ([2]; 303.15 K): 45.13 ± 0.67 mN/m
viscosity ([2]; 303.15 K): 405.6 ± 17 mPa·s
mass density ([2]; 303.15 K): 1119.6 ± 2.6 kg/m3
surface tension liquid-gas ([2]; 313.15 K): 43.54 ± 0.65 mN/m
viscosity ([2]; 313.15 K): 208.6 ± 7.4 mPa·s
mass density ([2]; 313.15 K): 1113.8 ± 2.6 kg/m3
surface tension liquid-gas ([2]; 323.15 K): 41.85 ± 0.63 mN/m
viscosity ([2]; 323.15 K): 116 ± 3.5 mPa·s
mass density ([2]; 323.15 K): 1107.9 ± 2.6 kg/m3
surface tension liquid-gas ([2]; 333.15 K): 40.04 ± 0.6 mN/m
viscosity ([2]; 333.15 K): 64.55 ± 1.8 mPa·s
mass density ([2]; 333.15 K): 1102 ± 2.6 kg/m3
surface tension liquid-gas ([2]; 343.15 K): 38.11 ± 0.57 mN/m
viscosity ([2]; 343.15 K): 38.79 ± 1.1 mPa·s
mass density ([2]; 343.15 K): 1096.2 ± 2.6 kg/m3

OCCN(CCO)CCO [triethanolamine] + O
surface tension liquid-gas ([1]; 303.15 K, w1 = 0.4227): 54.5 ± 0.89 mN/m
viscosity ([1]; 303.15 K, 101 kPa, w1 = 0.4227): 4.13 ± 0.1 mPa·s
mass density ([1]; 303.15 K, 101.3 kPa, w1 = 0.4227): 1052 ± 1.6 kg/m3
surface tension liquid-gas ([1]; 313.15 K, w1 = 0.4227): 53.8 ± 0.75 mN/m
viscosity ([1]; 313.15 K, 101 kPa, w1 = 0.4227): 2.91 ± 0.075 mPa·s
mass density ([1]; 313.15 K, 101.3 kPa, w1 = 0.4227): 1048 ± 1.6 kg/m3
surface tension liquid-gas ([1]; 323.15 K, w1 = 0.4227): 53 ± 0.74 mN/m
viscosity ([1]; 323.15 K, 101 kPa, w1 = 0.4227): 2.16 ± 0.055 mPa·s
mass density ([1]; 323.15 K, 101.3 kPa, w1 = 0.4227): 1043 ± 1.6 kg/m3
surface tension liquid-gas ([1]; 333.15 K, w1 = 0.4227): 52.3 ± 0.88 mN/m
viscosity ([1]; 333.15 K, 101 kPa, w1 = 0.4227): 1.67 ± 0.043 mPa·s
mass density ([1]; 333.15 K, 101.3 kPa, w1 = 0.4227): 1037 ± 2.6 kg/m3
surface tension liquid-gas ([1]; 343.15 K, w1 = 0.4227): 51.4 ± 0.72 mN/m
viscosity ([1]; 343.15 K, 101 kPa, w1 = 0.4227): 1.36 ± 0.035 mPa·s
mass density ([1]; 343.15 K, 101.3 kPa, w1 = 0.4227): 1032 ± 1.6 kg/m3

C1CNCCN1 [piperazine] + O
surface tension liquid-gas ([1]; 303.15 K, w1 = 0.0516): 69.56 ± 0.95 mN/m
mass density ([1]; 303.15 K, 101 kPa, w1 = 0.0516): 998.34 ± 1.5 kg/m3
viscosity ([1]; 303.15 K, 101 kPa, w1 = 0.0516): 0.959 ± 0.025 mPa·s
surface tension liquid-gas ([1]; 313.15 K, w1 = 0.0516): 67.98 ± 0.93 mN/m
mass density ([1]; 313.15 K, 101 kPa, w1 = 0.0516): 993.9 ± 1.5 kg/m3
viscosity ([1]; 313.15 K, 101 kPa, w1 = 0.0516): 0.775 ± 0.021 mPa·s
surface tension liquid-gas ([1]; 323.15 K, w1 = 0.0516): 66.49 ± 0.91 mN/m
mass density ([1]; 323.15 K, 101 kPa, w1 = 0.0516): 989.79 ± 1.5 kg/m3
viscosity ([1]; 323.15 K, 101 kPa, w1 = 0.0516): 0.641 ± 0.018 mPa·s
surface tension liquid-gas ([1]; 333.15 K, w1 = 0.0516): 65.17 ± 0.89 mN/m
mass density ([1]; 333.15 K, 101 kPa, w1 = 0.0516): 985.1 ± 1.5 kg/m3
viscosity ([1]; 333.15 K, 101 kPa, w1 = 0.0516): 0.542 ± 0.015 mPa·s

O=S1(=O)CCCC1 [sulfolane]
surface tension liquid-gas ([2]; 303.15 K): 47.95 ± 0.71 mN/m
viscosity ([2]; 303.15 K): 10.18 ± 0.25 mPa·s
mass density ([2]; 303.15 K): 1262.3 ± 2 kg/m3
surface tension liquid-gas ([2]; 313.15 K): 47.22 ± 0.7 mN/m
viscosity ([2]; 313.15 K): 7.85 ± 0.2 mPa·s
mass density ([2]; 313.15 K): 1254 ± 2 kg/m3
surface tension liquid-gas ([2]; 323.15 K): 46.61 ± 0.69 mN/m
viscosity ([2]; 323.15 K): 6.15 ± 0.16 mPa·s
mass density ([2]; 323.15 K): 1245.7 ± 2 kg/m3
surface tension liquid-gas ([2]; 333.15 K): 45.74 ± 0.68 mN/m
viscosity ([2]; 333.15 K): 4.4 ± 0.11 mPa·s
mass density ([2]; 333.15 K): 1236.5 ± 2 kg/m3
surface tension liquid-gas ([2]; 343.15 K): 45.16 ± 0.67 mN/m
viscosity ([2]; 343.15 K): 3.57 ± 0.09 mPa·s
mass density ([2]; 343.15 K): 1229 ± 2 kg/m3
